Source: patent US20260217672A1, “BENZAMIDE COMPOUNDS FOR TREATMENT OF BACTERIAL INFECTIONS” (Hoffmann-La Roche Inc., priority 2022, published 2026)
Converted amounts (≈) assume the structure as drawn.

Legend:
[1] = test system: Klebsiella pneumonia ATCC 43816; experiment: Minimal Inhibitory Concentration (MIC) broth dilution assay; assay type: cell-based; conditions: Klebsiella pneumoniae, ATCC43816, 20 h, read-out: MIC Klebsiella pneumoniae ATCC43816
Method: (§1) The antibacterial activity of the compounds of the present invention was evaluated against the commonly used quality control strain Escherichia coli ATCC 25922 and the rifampin-resistant mutant strain Klebsiella pneumonia ATCC 43816. Both were originally derived from human clinical samples and are available from ATCC (American Type Culture Collection). The in vitro potency of compounds to inhibit Escherichia coli (ATCC 25922) and Klebsiella pneumonia (ATCC 43816) growth was assessed by the MIC (Minimal Inhibitory Concentration) broth dilution method. Specifically compound dilutions were prepared from 10 mM DMSO stock solutions as follows: i) serial 2-fold dilution in 20 μL DMSO were prepared in a master plate (Greiner, Cat No: 651201), ii) 180 μL sterile distilled water was added to each aliquot and iii) 10 μL diluted compounds were transferred into a new assay plate (Costar, 3599).
(§2) Vials of each test microorganisms were maintained frozen in the vapor phase of a liquid nitrogen freezer. Single-use frozen vials of the two strains Escherichia coli ATCC 25922 (KWIKSTIK, 0335K) and Klebsiella pneumonia ATCC 43816, with predetermined CFU/mL, were taken out from the freezer, thawed at room temperature, and diluted in Cation-Adjusted Mueller Hinton Broth (CAMHB) to achieve a final inoculum of 5×10^5 CFU/mL. 90 μL bacteria containing broth was dispensed to the assay plate containing the pre-dispensed compound dilutions and mixed by pipetting 5 times.
(§3) Then the assay plates were incubated for 20 hours at 35° C. in ambient air. Following incubation, the MIC ([…]), the lowest concentration of drug that inhibits visible growth of the microorganism was read with the help of a magnification mirror and recorded.

[2] = test system: Escherichia coli ATCC 25922; experiment: as above; assay type: cell-based; conditions: ATCC25922, 20 h, read-out: MIC Escherichia coli ATCC 25922
Method: as §1, §2, §3

SMILES | MIC [1] [µg/mL] | MIC [2] [µg/mL]
O=C(Nc1ccc(S(=O)(=O)N2CCN(c3cc(C(F)(F)F)cc(Cl)n3)CC2)cc1)c1cccc(N2CCNCC2)c1 [Example 054, N-[4-[4-[6-chloro-4-(trifluoromethyl)-2-pyridyl]piperazin-1-yl]sulfonylphenyl]-3-piperazin-1-yl-benzamide] | 0.95 (≈ 1.56 µM) | 0.48 (≈ 0.788 µM)
NC1Cc2ccc(C(=O)Nc3ccc(S(=O)(=O)N4CCN(c5cc(C(F)(F)F)cc(Cl)n5)CC4)cc3)cc2C1 (centres unmarked) [Example 055, 2-Amino-N-[4-[4-[6-chloro-4-(trifluoromethyl)-2-pyridyl]piperazin-1-yl]sulfonylphenyl]indane-5-carboxamide] | 0.91 (≈ 1.57 µM) | 0.45 (≈ 0.776 µM)
NCc1ccc(O)c(C(=O)Nc2ccc(S(=O)(=O)N3CCN(c4cc(C(F)(F)F)cc(Cl)n4)CC3)cc2)c1 [Example 056, 5-(Aminomethyl)-N-[4-[4-[6-chloro-4-(trifluoromethyl)-2-pyridyl]piperazin-1-yl]sulfonylphenyl]-2-hydroxy-benzamide] | 3.8 (≈ 6.67 µM) | 3.8 (≈ 6.67 µM)
NCCC(N)C(=O)Nc1cccc(C(=O)Nc2ccc(S(=O)(=O)N3CCN(c4cc(C(F)(F)F)cc(Cl)n4)CC3)cc2)c1 (centres unmarked) [Example 057, N-[4-[4-[6-chloro-4-(trifluoromethyl)-2-pyridyl]piperazin-1-yl]sulfonylphenyl]-3-(2,4-diaminobutanoylamino)benzamide] | 2 (≈ 3.12 µM) | 1 (≈ 1.56 µM)
NCCCNCc1ccnc(C(=O)Nc2ccc(S(=O)(=O)N3CCN(c4cc(C(F)(F)F)cc(Cl)n4)CC3)cc2)c1 [Example 058, 4-[(3-Aminopropylamino)methyl]-N-[4-[4-[6-chloro-4-(trifluoromethyl)-2-pyridyl]piperazin-1-yl]sulfonylphenyl]pyridine-2-carboxamide] | 3.8 (≈ 6.21 µM) | 3.8 (≈ 6.21 µM)
NCCCNCc1cccc(C(=O)Nc2ccc(S(=O)(=O)N3CCN(c4cc(C(F)(F)F)cc(Cl)n4)CC3)cc2)n1 [Example 059, 6-[(3-Aminopropylamino)methyl]-N-[4-[4-[6-chloro-4-(trifluoromethyl)-2-pyridyl]piperazin-1-yl]sulfonylphenyl]pyridine-2-carboxamide] | 3.8 (≈ 6.21 µM) | 1.9 (≈ 3.1 µM)
NCCCNCc1cncc(C(=O)Nc2ccc(S(=O)(=O)N3CCN(c4cc(C(F)(F)F)cc(Cl)n4)CC3)cc2)c1 [Example 060, 5-[(3-Aminopropylamino)methyl]-N-[4-[4-[6-chloro-4-(trifluoromethyl)-2-pyridyl]piperazin-1-yl]sulfonylphenyl]pyridine-3-carboxamide] | 1.9 (≈ 3.1 µM) | 0.48 (≈ 0.784 µM)
NCCCNC1Cc2ccc(C(=O)Nc3ccc(S(=O)(=O)N4CCN(c5cc(C(F)(F)F)cc(Cl)n5)CC4)cc3)cc2C1 (centres unmarked) [Example 061, 2-(3-Aminopropylamino)-N-[4-[4-[6-chloro-4-(trifluoromethyl)-2-pyridyl]piperazin-1-yl]sulfonylphenyl]indane-5-carboxamide] | 1.1 (≈ 1.73 µM) | 0.53 (≈ 0.832 µM)
NCCCNC1CCc2ccc(C(=O)Nc3ccc(S(=O)(=O)N4CCN(c5cc(C(F)(F)F)cc(Cl)n5)CC4)cc3)cc21 (centres unmarked) [Example 062, 3-(3-Aminopropylamino)-N-[4-[4-[6-chloro-4-(trifluoromethyl)-2-pyridyl]piperazin-1-yl]sulfonylphenyl]indane-5-carboxamide] | 4.2 (≈ 6.59 µM) | 2.1 (≈ 3.3 µM)
COc1ccc(CN2CCC3CN(C)CC32)cc1C(=O)Nc1ccc(S(=O)(=O)N2CCN(c3cc(C(F)(F)F)cc(Cl)n3)CC2)cc1 (centres unmarked) [Example 063, N-[4-[4-[6-chloro-4-(trifluoromethyl)-2-pyridyl]piperazin-1-yl]sulfonylphenyl]-2-methoxy-5-[(5-methyl-2,3,3a,4,6,6a-hexahydropyrrolo[2,3-c]pyrrol-1-yl)methyl]benzamide] | 4.3 (≈ 6.2 µM) | 4.3 (≈ 6.2 µM)
NCCCNC1CCc2cc(C(=O)Nc3ccc(S(=O)(=O)N4CCN(c5cc(C(F)(F)F)cc(Cl)n5)CC4)cc3)ccc21 (centres unmarked) [Example 064, 1-(3-Aminopropylamino)-N-[4-[4-[6-chloro-4-(trifluoromethyl)-2-pyridyl]piperazin-1-yl]sulfonylphenyl]indane-5-carboxamide] | 4.2 (≈ 6.59 µM) | 2.1 (≈ 3.3 µM)
NCCCOc1ccc(C(=O)Nc2ccc(S(=O)(=O)N3CCN(c4cc(C(F)(F)F)cc(Cl)n4)CC3)cc2)cc1OCCCN [Example 065, 3,4-Bis(3-Aminopropoxy)-N-[4-[4-[6-chloro-4-(trifluoromethyl)-2-pyridyl]piperazin-1-yl]sulfonylphenyl]benzamide] | 0.52 (≈ 0.775 µM) | 0.26 (≈ 0.387 µM)
NCCCN1CCCC1c1cccc(C(=O)Nc2ccc(S(=O)(=O)N3CCN(c4cc(C(F)(F)F)cc(Cl)n4)CC3)cc2)c1 (centres unmarked) [Example 066, 3-[1-(3-Aminopropyl)pyrrolidin-2-yl]-N-[4-[4-[6-chloro-4-(trifluoromethyl)-2-pyridyl]piperazin-1-yl]sulfonylphenyl]benzamide] | 1 (≈ 1.54 µM) | 0.51 (≈ 0.783 µM)
NCCCN1CCC(c2cccc(C(=O)Nc3ccc(S(=O)(=O)N4CCN(c5cc(C(F)(F)F)cc(Cl)n5)CC4)cc3)c2)C1 (centres unmarked) [Example 067, 3-[1-(3-Aminopropyl)pyrrolidin-3-yl]-N-[4-[4-[6-chloro-4-(trifluoromethyl)-2-pyridyl]piperazin-1-yl]sulfonylphenyl]benzamide] | 1 (≈ 1.54 µM) | 0.51 (≈ 0.783 µM)
NC1CCN(CCc2ccc(C(=O)Nc3ccc(S(=O)(=O)N4CCN(c5cc(C(F)(F)F)cc(Cl)n5)CC4)cc3)cc2)C1 (centres unmarked) [Example 069, 4-[2-(3-Aminopyrrolidin-1-yl)ethyl]-N-[4-[4-[6-chloro-4-(trifluoromethyl)-2-pyridyl]piperazin-1-yl]sulfonylphenyl]benzamide] | 2.3 (≈ 3.61 µM) | 1.2 (≈ 1.88 µM)
NC1CCC12CN(CCc1ccc(C(=O)Nc3ccc(S(=O)(=O)N4CCN(c5cc(C(F)(F)F)cc(Cl)n5)CC4)cc3)cc1)C2 (centres unmarked) [Example 070, 4-[2-(7-Amino-2-azaspiro[3.3]heptan-2-yl)ethyl]-N-[4-[4-[6-chloro-4-(trifluoromethyl)-2-pyridyl]piperazin-1-yl]sulfonylphenyl]benzamide] | 2.4 (≈ 3.62 µM) | 1.2 (≈ 1.81 µM)
CN1CC2CCN(CCc3ccc(C(=O)Nc4ccc(S(=O)(=O)N5CCN(c6cc(C(F)(F)F)cc(Cl)n6)CC5)cc4)cc3)C2C1 (centres unmarked) [Example 071, N-[4-[4-[6-chloro-4-(trifluoromethyl)-2-pyridyl]piperazin-1-yl]sulfonylphenyl]-4-[2-(5-methyl-2,3,3a,4,6,6a-hexahydropyrrolo[2,3-c]pyrrol-1-yl)ethyl]benzamide] | 4.2 (≈ 6.2 µM) | 4.2 (≈ 6.2 µM)
O=C(Nc1ccc(S(=O)(=O)N2CCN(c3cc(C(F)(F)F)cc(Cl)n3)CC2)cc1)c1ccc(CCNCCCN2CCOCC2)cc1 [Example 073, N-[4-[4-[6-chloro-4-(trifluoromethyl)-2-pyridyl]piperazin-1-yl]sulfonylphenyl]-4-[2-(3-morpholinopropylamino)ethyl]benzamide] | 2.9 (≈ 4.17 µM) | 1.4 (≈ 2.01 µM)
NC1CC12CCN(CCc1ccc(C(=O)Nc3ccc(S(=O)(=O)N4CCN(c5cc(C(F)(F)F)cc(Cl)n5)CC4)cc3)cc1)C2 (centres unmarked) [Example 074, 4-[2-(2-Amino-5-azaspiro[2.4]heptan-5-yl)ethyl]-N-[4-[4-[6-chloro-4-(trifluoromethyl)-2-pyridyl]piperazin-1-yl]sulfonylphenyl]benzamide] | 2.8 (≈ 4.22 µM) | 2.8 (≈ 4.22 µM)
